According to US11312737B2, “Amide-linked EP4 agonist-bisphosphonate compounds and uses thereof” (SIMON FRASER UNIVERSITY, priority 2015, dated 2022):

Experiments:
[1] = In vivo uptake studies of tritium labelled C3, C4 and C5-conjugates 6 hours after dosing; conditions: rat; for % of the initial dose found in muscle: 6 hours after dosing; for uptake into long bones, % of initial dose: 6 hours after injection, tritium label
Procedure: The three conjugate compounds, C3, C4 and C5, were radiolabelled with tritium in the EP4 agonist moiety and used to monitor in vivo distribution in rat organs and uptake into bone after intravenous dosing.
The radioactivity in organs (heart, kidney, brain, muscle, one piece of muscle attached to bone, spleen and liver) was counted 6 hours after dosing (FIG. 3). For the C3-conjugate compound, calculations were done based on results obtained from two rats. Most of the labelled conjugate compounds were taken up into liver (65-74%), and about 1% and 0.2% were found in spleen and kidneys for all labelled conjugate compounds, after 6 hours. About 0.2% of the initial dose of the C4 and C5-conjugate compounds, and 2% of the C3-conjugate compound, was found in muscle. All other organs contained 0.05% of the initial dose of the conjugate compounds.
Finally, the uptake of the tritiated C3, C4 and C5-conjugate compounds into bones was counted (FIG. 4). All three conjugate compounds were well taken up into bone.

[2] = In vivo uptake and release studies of tritium labelled C3-conjugate over 28 days; conditions: rat
Procedure: In vivo uptake and release studies using tritium labelled C3-conjugate compound were performed. After intravenous dosing of 1-5 μCi/5 mg/kg of [^3H]-C3 to 15 rats, groups of 3 rats were euthanized at each time point a at t=6 h, 24 h, 7 d, 14 d, 28 d). The radioactivity in blood samples, spleen, liver and long bones was counted for each group of rats. […] After one week, 53% of label was eliminated and only traces were detected after 28 days (FIG. 6). In spleen, the counted radioactivity decreased from 1% 6 hours after dosing to 0.4% at t=28 days (FIG. 6).

leukocytes = experiment: Neutrophil function effects; assay type: cell-based; conditions: for neutrophil speed / activity in leukocytes (neutrophil function): FIG. 13
[3] = Stability of conjugate compounds in rat plasma; conditions: fresh rat plasma, 37° C., 100 μg/mL
Procedure: The amide-linked conjugate compounds were examined for their stability in rat plasma. […] The mixture was then incubated at 37° C. for 24 h. Aliquots of 10 μL were removed at 0, 2, 4, 6, 7 and 24 h, mixed to 10 mg of bone powder and 10-fold diluted with water in a 0.6 mL Eppendorf tube. A gentle stirring was applied for 20 min. 50 μL were then used to count the activity.

## CCOC(=O)CCCCCCN1C(=O)CC[C@@H]1/C=C/[C@@H](OC(=O)Cc1ccc(C(=O)NCCCC(O)(P(=O)(O)O)P(=O)(O)O)cc1)C(F)(F)c1ccccc1 [C3-conjugate, Sodium (4-(4-(2-(((R,E)-4-((R)-1-(7-ethoxy-7-oxoheptyl)-5-oxopyrrolidin-2-yl)-1,1-difluoro-1-phenylbut-3-en-2-yl)oxy)-2-oxoethyl)benzamido)-1-hydroxybutane-1,1-diyl)bis(hydrogen phosphonate)]
[1]
  % of the initial dose found in muscle: ~2%
[2]; 6 hours after dosing
  counted radioactivity in spleen: 1%
[2]; 6 hours after injection
  tritiated conjugate found in liver: 69%
[2]; after 24 hours
  tritiated conjugate in liver: remained in a high proportion
[2]; after 7 days, tritium label
  conjugate remained attached to bone: 5.5%
[2]; after 28 days
  tritiated conjugate in liver: only traces
[2]; after one week
  label eliminated from liver: 53%
[2]; calculated from bone data over 28 days
  half-life (tritium label on bone): about 8 days
[2]; end of the study (28 days), tritium label
  % of the initial dose observed in bone: 1.4%
[2]; over 28 days, tritium label
  activity detected in the bloodstream: Very low activity
[2]; t=28 days
  counted radioactivity in spleen: 0.4%
[2]; tritium label
  clearance from plasma: rapid clearance
leukocytes
  neutrophil speed: low neutrophil speed
[3]
  hydrolysis after 24 h-incubation: About 10%

## CCOC(=O)CCCCCCN1C(=O)CC[C@@H]1/C=C/[C@@H](OC(=O)Cc1ccc(C(=O)NCCC(O)(P(=O)(O)O)P(=O)(O)O)cc1)C(F)(F)c1ccccc1 [C4-conjugate, Sodium (3-(4-(2-(((R,E)-4-((R)-1-(7-ethoxy-7-oxoheptyl)-5-oxopyrrolidin-2-yl)-1,1-difluoro-1-phenylbut-3-en-2-yl)oxy)-2-oxoethypbenzamido)-1-hydroxypropane-1,1-diyl)bis(hydrogen phosphonate)]
[1]
  % of the initial dose found in muscle: About 0.2%
  uptake into long bones, % of initial dose: about 10%
leukocytes
  activity in leukocytes (neutrophil function): active

## CCOC(=O)CCCCCCN1C(=O)CC[C@@H]1/C=C/[C@@H](OC(=O)Cc1ccc(C(=O)NCCCCCC(O)(P(=O)(O)O)P(=O)(O)O)cc1)C(F)(F)c1ccccc1 [C5-conjugate, Sodium (6-(4-(2-(((R,E)-4-((R)-1-(7-ethoxy-7-oxoheptyl)-5-oxopyrrolidin-2-yl)-1,1-difluoro-1-phenyibut-3-en-2-yl)oxy)-2-oxoethyl)benzamido)-1-hydroxyhexane-1,1-diyl)bis(hydrogen phosphonate)]
[1]
  % of the initial dose found in muscle: About 0.2%
  uptake into long bones, % of initial dose: about 10%

## CCOC(=O)CCCCCCN1C(=O)CC[C@@H]1/C=C/[C@@H](O)C(F)(F)c1ccccc1 [EP4 agonist, ethyl 7-((R)-2-((R,E)-4,4-difluoro-3-hydroxy-4-phenylbut-1-en-1-yl)-5-oxopyrrolidin-1-yl)heptanoate]
leukocytes
  neutrophil speed: low neutrophil speed

## NCCCC(O)(P(=O)(O)O)P(=O)(O)O [alendronate, 4-amino-1-hydroxybutylidene-1,1-bisphosphonic acid monosodium trihydrate, reference compound]
leukocytes
  activity in leukocytes (neutrophil function): active

## O=C(O)Cc1ccc(C(=O)NCCCC(O)(P(=O)(O)O)P(=O)(O)O)cc1 [fragment 4, Sodium 2-(4-((4-hydroxy-4,4-bis(hydroxyoxidophosphoryl)butyl)carbamoyl)phenyl)acetate]
leukocytes
  biological activity compared to alendronate alone: biologically inactive
  activity in leukocytes (neutrophil function): neither fragment 4 nor 5 exhibited significant activity

## O=C(O)Cc1ccc(C(=O)NCCC(O)(P(=O)(O)O)P(=O)(O)O)cc1 [fragment 5, Sodium2-(4-((3-hydroxy-3,3-bis(hydroxyoxidophosphoryl)propyl)carbamoyl)phenyl)acetate]
leukocytes
  activity in leukocytes (neutrophil function): neither fragment 4 nor 5 exhibited significant activity

## NCCC(O)(P(=O)(O)O)P(=O)(O)O [pamidronate, 3-amino-1-hydroxypropylidene-1,1-bisphosphonic acid, reference compound]
leukocytes
  activity in leukocytes (neutrophil function): active
